Publication PMC9562188, “Characterization of the Aquaporin-9 Inhibitor RG100204 In Vitro and in db/db Mice” (Cells, 2022)
pIC50: −log10 of the molar value.

Target: T1, Aquaporin-9 (AQP9) (Homo sapiens, UniProt O43315)
T1 construct: 10×His-hAQP9 (N-terminal 10-histidine tag), purified from P. pastoris, reconstituted in proteoliposomes
T1 sequence (O43315 1-295): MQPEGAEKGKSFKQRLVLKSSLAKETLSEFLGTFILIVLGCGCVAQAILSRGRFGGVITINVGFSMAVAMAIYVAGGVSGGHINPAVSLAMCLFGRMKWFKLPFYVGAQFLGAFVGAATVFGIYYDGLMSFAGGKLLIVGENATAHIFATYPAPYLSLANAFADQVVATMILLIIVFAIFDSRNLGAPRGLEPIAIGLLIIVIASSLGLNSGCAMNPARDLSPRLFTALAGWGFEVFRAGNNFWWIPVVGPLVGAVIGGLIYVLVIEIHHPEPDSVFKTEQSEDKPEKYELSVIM
Assay: stopped-flow light scattering of purified AQP9 proteoliposomes ([…], −[…] Pgly); IC50 (water permeability; glycerol […]) from calcein quenching in human AQP9-expressing CHO cells
Assay type: cell-based

O=C(CCc1ccc(O)cc1)c1c(O)cc(O)cc1O [phlor, phloretin]
pIC50: ~6.70
